Reference: US10112950B2, “Substituted imidazo[1,2-a]pyrazines as LSD1 inhibitors” (Incyte Corporation, priority 2014, dated 2018)

target: LSD-1 enzyme (Homo sapiens (Human), UniProt O60341); assay: LANCE LSD1/KDM1A demethylase assay (LSD1 histone demethylase biochemical assay); conditions: 1 nM LSD-1 enzyme, 1 hour preincubation at 25° C., 0.4 μM Biotin-labeled Histone H3 peptide substrate
Protocol: LSD1 Histone Demethylase Biochemical Assay
LANCE LSD1/KDM1A demethylase assay-10 μL of 1 nM LSD-1 enzyme (ENZO BML-SE544-0050) in the assay buffer (50 mM Tris, pH 7.5, 0.01% Tween-20, 25 mM NaCl, 5 mM DTT) were preincubated for 1 hour at 25° C. with 0.8 μL compound/DMSO dotted in black 384 well polystyrene plates. […] Reactions were stopped by addition of 10 μL 1× LANCE Detection Buffer (PerkinElmer CR97-100) supplemented with 1.5 nM Eu-anti-unmodified H3K4 Antibody (PerkinElmer TRF0404), and 225 nM LANCE Ultra Streptavidin (PerkinElmer TRF102) along with 0.9 mM Tranylcypromine-HCl (Millipore 616431). After stopping the reactions plates were incubated for 30 minutes and read on a PHERAstar FS plate reader (BMG Labtech).

| Structure (SMILES) | IC50 |
| --- | --- |
| CN(C)C1CCN(c2nc(-c3ccc(C#N)cc3)c(-c3ccc4c(c3)CC(O)C4)n3ccnc23)CC1 (racemic) [Example 93, 4-[8-[4-(dimethylamino)piperidin-1-yl]-5-(2-hydroxy-2,3-dihydro-1H-inden-5-yl)imidazo[1,2-a]pyrazin-6-yl]benzonitrile] | ≤ 50 nM |
| CN(C)C1CCN(c2nc(-c3ccc(C#N)cc3)c(-c3ccc4c(c3)C(O)CC4)n3ccnc23)CC1 (racemic) [Example 95, 4-[8-[4-(dimethylamino)piperidin-1-yl]-5-(3-hydroxy-2,3-dihydro-1H-inden-5-yl)imidazo[1,2-a]pyrazin-6-yl]benzonitrile] | ≤ 50 nM |
| Cc1ccc(-c2c(-c3ccc(C#N)cc3)nc(OC[C@@H]3CCNC3)c3nccn23)cc1 [Example 1, 4-{5-(4-methylphenyl)-8-[(3R)-pyrrolidin-3-ylmethoxy]imidazo[1,2-a]pyrazin-6-yl}benzonitrile] | ≤ 50 nM |
| Cc1ccc(-c2c(-c3ccc(C#N)cc3)nc(CCC3CCNC3)c3nccn23)cc1 (stereo not shown) [Example 2, 4-[5-(4-methylphenyl)-8-(2-pyrrolidin-3-ylethyl)imidazo[1,2-a]pyrazin-6-yl]benzonitrile] | ≤ 50 nM |
| Cc1ccc(-c2c(-c3ccc(C#N)cc3)nc(CN3CC[C@H](N(C)C)C3)c3nccn23)cc1 [Example 4, 4-[8-{[(3S)-3-(dimethylamino)pyrrolidin-1-yl]methyl}-5-(4-methylphenyl)imidazo[1,2-a]pyrazin-6-yl]benzonitrile] | ≤ 50 nM |
| Cc1ccc(-c2c(-c3ccc(C#N)cc3)nc(CN3CC[C@@H](N(C)C)C3)c3nccn23)cc1 [Example 5, 4-[8-{[(3R)-3-(dimethylamino)pyrrolidin-1-yl]methyl}-5-(4-methylphenyl)imidazo[1,2-a]pyrazin-6-yl]benzonitrile] | ≤ 50 nM |
| Cc1ccc(-c2c(-c3ccc(C#N)cc3)nc(OC3CCN(C)C3)c3nccn23)cc1 (stereo not shown) [Example 7, 4-{5-(4-methylphenyl)-8-[(1-methylpyrrolidin-3-yl)oxy]imidazo[1,2-a]pyrazin-6-yl}benzonitrile] | ≤ 50 nM |
| Cc1ccc(-c2c(-c3ccc(C#N)cc3)nc(OC[C@@H]3CCCNC3)c3nccn23)cc1 [Example 9, 4-{5-(4-methylphenyl)-8-[(3R)-piperidin-3-ylmethoxy]imidazo[1,2-a]pyrazin-6-yl}benzonitrile] | ≤ 50 nM |
| Cc1ccc(-c2c(-c3ccc(C#N)cc3)nc(OC[C@H]3CCCNC3)c3nccn23)cc1 [Example 10, 4-{5-(4-methylphenyl)-8-[(3S)-piperidin-3-ylmethoxy]imidazol[1,2-a]pyrazin-6-yl}benzonitrile] | ≤ 50 nM |
| Cc1ccc(-c2c(-c3ccc(C#N)cc3)nc(OC[C@@H]3CCN(C)C3)c3nccn23)cc1 [Example 11, 4-(5-(4-methylphenyl)-8-{[(3R)-1-methylpyrrolidin-3-yl]methoxy}imidazo[1,2-a]pyrazin-6-yl)benzonitrile] | ≤ 50 nM |
| Cc1ccc(-c2c(-c3ccc(C#N)cc3)nc(OC[C@@H]3CCCN(C)C3)c3nccn23)cc1 [Example 12, 4-(5-(4-methylphenyl)-8-{[(3R)-1-methylpiperidin-3-yl]methoxy}imidazo[1,2-a]pyrazin-6-yl)benzonitrile] | ≤ 50 nM |
| Cc1ccc(-c2c(-c3ccc(C#N)cc3)nc(SC[C@@H]3CCNC3)c3nccn23)cc1 [Example 13, 4-(5-(4-methylphenyl)-8-{[(3R)-pyrrolidin-3-ylmethyl]thio}imidazo[1,2-a]pyrazin-6-yl)benzonitrile] | ≤ 50 nM |
| Cc1ccc(-c2c(-c3ccc(C#N)cc3)nc(N3CCC(N(C)C)CC3)c3nccn23)cc1 [Example 14, 4-[8-[4-(dimethylamino)piperidin-1-yl]-5-(4-methylphenyl)imidazo[1,2-a]pyrazin-6-yl]benzonitrile] | ≤ 50 nM |
| Cc1ccc(-c2c(-c3ccc(C#N)cc3)nc(N3CCCN(C)CC3)c3nccn23)cc1 [Example 18, 4-[8-(4-methyl-1,4-diazepan-1-yl)-5-(4-methylphenyl)imidazo[1,2-a]pyrazin-6-yl]benzonitrile] | ≤ 50 nM |
| Cc1ccc(-c2c(-c3ccc(C#N)cc3)nc(N3CCC4(CCNC4)C3)c3nccn23)cc1 (stereo not shown) [Example 19, 4-[8-(2,7-diazaspiro[4.4]non-2-yl)-5-(4-methylphenyl)imidazo[1,2-a]pyrazin-6-yl]benzonitrile] | ≤ 50 nM |
| Cc1ccc(-c2c(-c3ccc(C#N)cc3)nc(N3CCC4(CC3)CNC4)c3nccn23)cc1 [Example 20, 4-[8-(2,7-diazaspiro[3.5]non-7-yl)-5-(4-methylphenyl)imidazo[1,2-a]pyrazin-6-yl]benzonitrile] | ≤ 50 nM |

| Structure (SMILES) | IC50 |
| --- | --- |
| N#Cc1ccc(-c2nc(OC[C@@H]3CCNC3)c3nccn3c2-c2ccc(N3CCCCC3)cc2)cc1 [Example 29, 4-{5-(4-piperidin-1-ylphenyl)-8-[(3R)-pyrrolidin-3-ylmethoxy]imidazo[1,2-a]pyrazin-6-yl}benzonitrile] | ≤ 50 nM |
| COc1ccc(-c2c(-c3ccc(C#N)cc3)nc(OC[C@@H]3CCNC3)c3nccn23)cc1 [Example 30, 4-{5-(4-methoxyphenyl)-8-[(3R)-pyrrolidin-3-ylmethoxy]imidazol[1,2-a]pyrazin-6-yl}benzonitrile] | ≤ 50 nM |
| Cc1ccc(-c2c(-c3ccc(C#N)cc3)nc(OC[C@@H]3CCNC3)c3nc(C)cn23)cc1 [Example 33, 4-{2-methyl-5-(4-methylphenyl)-8-[(3R)-pyrrolidin-3-ylmethoxy]imidazo[1,2-a]pyrazin-6-yl}benzonitrile] | ≤ 50 nM |
| Cc1ccc(-c2c(-c3ccc(C#N)cc3)nc(OC[C@@H]3CCNC3)c3nc(CC#N)cn23)cc1 [Example 36, 4-{2-(cyanomethyl)-5-(4-methylphenyl)-8-[(3R)-pyrrolidin-3-ylmethoxy]imidazol[1,2-a]pyrazin-6-yl}benzonitrile] | ≤ 50 nM |
| CNC(=O)c1cn2c(-c3ccc(C)cc3)c(-c3ccc(C#N)cc3)nc(OC[C@@H]3CCNC3)c2n1 [Example 37, 6-(4-cyanophenyl)-N-methyl-5-(4-methylphenyl)-8-[(3R)-pyrrolidin-3-ylmethoxy]imidazol-[1,2-a]pyrazine-2-carboxamide] | ≤ 50 nM |
| Cc1ccc(-c2c(-c3ccc(C#N)cc3)nc(OC[C@@H]3CCNC3)c3nc(C(=O)N(C)C)cn23)cc1 [Example 38, 6-(4-cyanophenyl)-N,N-dimethyl-5-(4-methylphenyl)-8-[(3R)-pyrrolidin-3-ylmethoxy]imidazo[1,2-a]pyrazine-2-carboxamide] | ≤ 50 nM |
| Cc1ccc(-c2c(-c3ccc(C#N)cc3)nc(OC[C@@H]3CCNC3)c3nc(C(=O)NC4CC4)cn23)cc1 [Example 39, 6-(4-cyanophenyl)-N-cyclopropyl-5-(4-methylphenyl)-8-[(3R)-pyrrolidin-3-ylmethoxy]imidazol[1,2-a]pyrazine-2-carboxamide] | ≤ 50 nM |
| Cc1ccc(-c2c(-c3ccc(C#N)cc3)nc(OC[C@@H]3CCNC3)c3nc(C(=O)NC4CN(C)C4)cn23)cc1 [Example 40, 6-(4-cyanophenyl)-N-(1-methylazetidin-3-yl)-5-(4-methylphenyl)-8-[(3R)-pyrrolidin-3-ylmethoxy]imidazol[1,2-a]pyrazine-2-carboxamide] | ≤ 50 nM |
| Cc1ccc(-c2c(-c3ccc(C#N)cc3)nc(OC[C@@H]3CCNC3)c3nc(CO)cn23)cc1 [Example 41, 4-{2-(hydroxymethyl)-5-(4-methylphenyl)-8-[(3R)-pyrrolidin-3-ylmethoxy]imidazol[1,2-a]pyrazin-6-yl}benzonitrile] | ≤ 50 nM |
| Cc1ccc(-c2c(-c3ccc(C#N)cc3)nc(OC[C@@H]3CCNC3)c3nc(CN(C)C)cn23)cc1 [Example 42, 4-{2-[(dimethylamino)methyl]-5-(4-methylphenyl)-8-[(3R)-pyrrolidin-3-ylmethoxy]imidazol[1,2-a]pyrazin-6-yl}benzonitrile] | ≤ 50 nM |
| Cc1ccc(-c2c(-c3ccc(C#N)cc3)nc(OC[C@@H]3CCNC3)c3nc(CN4CCC4)cn23)cc1 [Example 43, 4-{2-(azetidin-1-ylmethyl)-5-(4-methylphenyl)-8-[(3R)-pyrrolidin-3-ylmethoxy]imidazol[1,2-a]pyrazin-6-yl}benzonitrile] | ≤ 50 nM |
| Cc1ccc(-c2c(-c3ccc(C#N)cc3)nc(OC[C@@H]3CCNC3)c3nc(CNCC4CC4)cn23)cc1 [Example 44, 4-{2-{[(cyclopropylmethyl)amino]methyl}-5-(4-methylphenyl)-8-[(3R)-pyrrolidin-3-ylmethoxy]imidazo[1,2-a]pyrazin-6-yl}benzonitrile] | ≤ 50 nM |
| Cc1ccc(-c2c(-c3ccc(C#N)cc3)nc(OC[C@@H]3CCNC3)c3nc(CNc4ccon4)cn23)cc1 [Example 45, 4-{2-[(isoxazol-3-ylamino)methyl]-5-(4-methylphenyl)-8-[(3R)-pyrrolidin-3-ylmethoxy]imidazo[1,2-a]pyrazin-6-yl}benzonitrile] | ≤ 50 nM |
| Cc1ccc(-c2c(-c3ccc(C#N)cc3)nc(OC[C@@H]3CCN(C)C3)c3nc(CN(C)C)cn23)cc1 [Example 46, 4-(2-[(dimethylamino)methyl]-5-(4-methylphenyl)-8-{[(3R)-1-methylpyrrolidin-3-yl]methoxy}imidazo[1,2-a]pyrazin-6-yl)benzonitrile] | ≤ 50 nM |
| Cc1ccc(-c2c(-c3ccc(C#N)cc3)nc(OC[C@@H]3CCNC3)c3nc(CCN(C)C)cn23)cc1 [Example 47, 4-{2-[2-(dimethylamino)ethyl]-5-(4-methylphenyl)-8-[(3R)-pyrrolidin-3-ylmethoxy]imidazo[1,2-a]pyrazin-6-yl}benzonitrile] | ≤ 50 nM |
